# Results as given in PubChem BioAssay (NCI).
#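 Tested at 5 concentrations; 48 h exposure; 96-well plates; endpoints linearly interpolated, else capped at highest concentration. At the GI50, growth is halved. TGI: total growth inhibition.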
# Columns and labels:
# Assay in all cases: NCI tumour cell line growth inhibition, 48 h
# [1] = system: 786-0 renal
# [2] = system: A549 NSCLC
# [3] = system: ACHN renal
# [4] = system: BT-549 breast
# [5] = system: CAKI-1 renal
# [6] = system: CCRF-CEM leukemia
# [7] = system: COLO 205 colon
# [8] = system: EKVX NSCLC
# [9] = system: HCC-2998 colon
# [10] = system: HCT-116 colon
# [11] = system: HCT-15 colon
# [12] = system: HL-60(TB) leukemia
# [13] = system: HOP-62 NSCLC
# [14] = system: HOP-92 NSCLC
# [15] = system: HS 578T breast
# [16] = system: HT29 colon
# [17] = system: IGROV1 ovarian
# [18] = system: K-562 leukemia
# [19] = system: KM12 colon
# [20] = system: LOX IMVI melanoma
# [21] = system: M14 melanoma
# [22] = system: MCF7 breast
# [23] = system: MDA-MB-231 breast
# [24] = system: MDA-MB-435
# [25] = system: MOLT-4 leukemia
# [26] = system: NCI-H226 lung
# [27] = system: NCI-H23 lung
# [28] = system: NCI-H460 lung
# [29] = system: NCI-H522 lung
# [30] = system: NCI/ADR-RES ovarian
# [31] = system: OVCAR-3 ovarian
# [32] = system: OVCAR-5 ovarian
# [33] = system: OVCAR-8 ovarian
# [34] = system: PC-3 prostate
# [35] = system: RPMI-8226 leukemia
# [36] = system: RXF 393 renal
# [37] = system: SF-268 CNS
# [38] = system: SF-295 CNS
# [39] = system: SK-MEL-2 melanoma
# [40] = system: SK-MEL-28 melanoma
# [41] = system: SK-MEL-5 melanoma
# [42] = system: SN12C renal
# [43] = system: SNB-19 CNS
# [44] = system: SW-620 colon
# [45] = system: T-47D breast
# [46] = system: TK-10 renal
# [47] = system: U251 CNS
# [48] = system: UACC-257 melanoma
# [49] = system: UACC-62 melanoma
# [50] = system: UO-31 renal
# [51] = system: A498 renal
# [52] = system: DU-145 prostate
# [53] = system: MALME-3M melanoma
# [54] = system: OVCAR-4 ovarian
# [55] = system: SF-539 CNS
# [56] = system: SK-OV-3 ovarian
# [57] = system: SNB-75 CNS
# [58] = system: SR leukemia
smiles,measurement,setting,value
O=C(O)c1ccc(NCn2nc(-c3ccccc3O)oc2=S)cc1,GI50,[1],39.7 µM
same,TGI,[1],> 100 µM
same,GI50,[2],42.3 µM
same,TGI,[2],> 100 µM
same,GI50,[3],27.7 µM
same,TGI,[3],72 µM
same,GI50,[4],59.6 µM
same,TGI,[4],> 100 µM
same,GI50,[5],> 100 µM
same,TGI,[5],> 100 µM
same,GI50,[6],7.38 µM
same,TGI,[6],> 100 µM
same,GI50,[7],48.8 µM
same,TGI,[7],> 100 µM
same,GI50,[8],> 100 µM
same,TGI,[8],> 100 µM
same,GI50,[9],29.2 µM
same,TGI,[9],93.7 µM
same,GI50,[10],23.7 µM
same,TGI,[10],57.3 µM
same,GI50,[11],24.9 µM
same,TGI,[11],57.5 µM
same,GI50,[12],62.8 µM
same,TGI,[12],> 100 µM
same,GI50,[13],47.2 µM
same,TGI,[13],> 100 µM
same,GI50,[14],33.8 µM
same,TGI,[14],82.6 µM
same,GI50,[15],> 100 µM
same,TGI,[15],> 100 µM
same,GI50,[16],38.6 µM
same,TGI,[16],> 100 µM
same,GI50,[17],> 100 µM
same,TGI,[17],> 100 µM
same,GI50,[18],40.7 µM
same,TGI,[18],> 100 µM
same,GI50,[19],> 100 µM
same,TGI,[19],> 100 µM
same,GI50,[20],19.9 µM
same,TGI,[20],38.3 µM
same,GI50,[21],53.5 µM
same,TGI,[21],> 100 µM
same,GI50,[22],49.1 µM
same,TGI,[22],> 100 µM
same,GI50,[23],16.1 µM
same,TGI,[23],58.5 µM
same,GI50,[24],> 100 µM
same,TGI,[24],> 100 µM
same,GI50,[25],4.69 µM
same,TGI,[25],26.8 µM
same,GI50,[26],> 100 µM
same,TGI,[26],> 100 µM
same,GI50,[27],50.7 µM
same,TGI,[27],> 100 µM
same,GI50,[28],40.5 µM
same,TGI,[28],> 100 µM
same,GI50,[29],> 100 µM
same,TGI,[29],> 100 µM
same,GI50,[30],62.7 µM
same,TGI,[30],> 100 µM
same,GI50,[31],> 100 µM
same,TGI,[31],> 100 µM
same,GI50,[32],> 100 µM
same,TGI,[32],> 100 µM
same,GI50,[33],> 100 µM
same,TGI,[33],> 100 µM
same,GI50,[34],59.9 µM
same,TGI,[34],> 100 µM
same,GI50,[35],> 100 µM
same,TGI,[35],> 100 µM
same,GI50,[36],67.9 µM
same,TGI,[36],> 100 µM
same,GI50,[37],96.4 µM
same,TGI,[37],> 100 µM
same,GI50,[38],> 100 µM
same,TGI,[38],> 100 µM
same,GI50,[39],> 100 µM
same,TGI,[39],> 100 µM
same,GI50,[40],> 100 µM
same,TGI,[40],> 100 µM
same,GI50,[41],> 100 µM
same,TGI,[41],> 100 µM
same,GI50,[42],50.5 µM
same,TGI,[42],> 100 µM
same,GI50,[43],> 100 µM
same,TGI,[43],> 100 µM
same,GI50,[44],38.9 µM
same,TGI,[44],> 100 µM
same,GI50,[45],> 100 µM
same,TGI,[45],> 100 µM
same,GI50,[46],> 100 µM
same,TGI,[46],> 100 µM
same,GI50,[47],43.1 µM
same,TGI,[47],> 100 µM
same,GI50,[48],> 100 µM
same,TGI,[48],> 100 µM
same,GI50,[49],34.1 µM
same,TGI,[49],97.7 µM
same,GI50,[50],> 100 µM
same,TGI,[50],> 100 µM
O=C1/C(=C/c2cccc(Br)c2)COc2ccc(O)cc21,GI50,[1],2.08 µM
same,TGI,[1],5.43 µM
same,GI50,[51],11.6 µM
same,TGI,[51],23.9 µM
same,GI50,[2],4.12 µM
same,TGI,[2],16.5 µM
same,GI50,[3],1.89 µM
same,TGI,[3],4.16 µM
same,GI50,[4],3.01 µM
same,TGI,[4],12.7 µM
same,GI50,[5],1.83 µM
same,TGI,[5],5.12 µM
same,GI50,[6],0.285 µM
same,TGI,[6],1.88 µM
same,GI50,[7],3.33 µM
same,TGI,[7],11.1 µM
same,GI50,[52],4.48 µM
same,TGI,[52],16.5 µM
same,GI50,[8],4.78 µM
same,TGI,[8],17.4 µM
same,GI50,[9],1.8 µM
same,TGI,[9],3.46 µM
same,GI50,[10],1.45 µM
same,TGI,[10],2.99 µM
same,GI50,[11],1.95 µM
same,TGI,[11],7.88 µM
same,GI50,[12],1.88 µM
same,TGI,[12],5.75 µM
same,GI50,[13],11.7 µM
same,TGI,[13],24.3 µM
same,GI50,[14],2.65 µM
same,TGI,[14],13.6 µM
same,GI50,[15],3.47 µM
same,TGI,[15],26.2 µM
same,GI50,[16],2.43 µM
same,TGI,[16],10.2 µM
same,GI50,[17],1.92 µM
same,TGI,[17],4.75 µM
same,GI50,[18],1.24 µM
same,TGI,[18],11 µM
same,GI50,[19],1.75 µM
same,TGI,[19],3.74 µM
same,GI50,[20],1.7 µM
same,TGI,[20],3.41 µM
same,GI50,[21],3.42 µM
same,TGI,[21],12.3 µM
same,GI50,[53],2.36 µM
same,TGI,[53],6.65 µM
same,GI50,[23],2.88 µM
same,TGI,[23],9.38 µM
same,GI50,[24],2.13 µM
same,TGI,[24],5.35 µM
same,GI50,[25],2.46 µM
same,TGI,[25],10.9 µM
same,GI50,[26],4.92 µM
same,TGI,[26],26 µM
same,GI50,[27],3.79 µM
same,TGI,[27],15.6 µM
same,GI50,[28],3.69 µM
same,TGI,[28],13.2 µM
same,GI50,[29],1.46 µM
same,TGI,[29],3.11 µM
same,GI50,[30],3.24 µM
same,TGI,[30],13.5 µM
same,GI50,[31],1.82 µM
same,TGI,[31],3.89 µM
same,GI50,[54],3.55 µM
same,TGI,[54],14.1 µM
same,GI50,[32],3.72 µM
same,TGI,[32],14.5 µM
same,GI50,[33],3.4 µM
same,TGI,[33],12.9 µM
same,GI50,[34],2.04 µM
same,TGI,[34],5.57 µM
same,GI50,[35],0.26 µM
same,TGI,[35],0.761 µM
same,GI50,[36],2.12 µM
same,TGI,[36],5.99 µM
same,GI50,[37],3.33 µM
same,TGI,[37],18.2 µM
same,GI50,[38],10.4 µM
same,TGI,[38],23.6 µM
same,GI50,[55],1.89 µM
same,TGI,[55],4.58 µM
same,GI50,[39],3.79 µM
same,TGI,[39],14.2 µM
same,GI50,[40],2.14 µM
same,TGI,[40],5.21 µM
same,GI50,[41],1.91 µM
same,TGI,[41],4.35 µM
same,GI50,[56],7.33 µM
same,TGI,[56],19.8 µM
same,GI50,[42],1.85 µM
same,TGI,[42],4.28 µM
same,GI50,[43],2.43 µM
same,TGI,[43],7.47 µM
same,GI50,[57],1.79 µM
same,TGI,[57],14.6 µM
same,GI50,[58],0.47 µM
same,TGI,[58],5.2 µM
same,GI50,[44],0.683 µM
same,TGI,[44],2.49 µM
same,GI50,[45],2.18 µM
same,TGI,[45],6.28 µM
same,GI50,[46],3.94 µM
same,TGI,[46],15.6 µM
same,GI50,[47],1.49 µM
same,TGI,[47],3 µM
same,GI50,[48],3.93 µM
same,TGI,[48],15.9 µM
same,GI50,[49],2.37 µM
same,TGI,[49],6.35 µM
same,GI50,[50],1.51 µM
same,TGI,[50],3.46 µM
